# Test results as given in ChEMBL document CHEMBL5137022, “Antitumor Activity of Rutaecarpine in Human Colorectal Cancer Cells by Suppression of Wnt/β-Catenin Signaling” (J Nat Prod, 2022).
# Calls of active or inactive are those of the source. The rule behind the calls is not given here.
# Assays:
# LS174T [1] = assay: Induction of cell cycle arrest in human LS174T cells assessed as downregulation of CDK6 expression measured after 24 hrs by Western blot analysis; format: functional, cell-based; settings: dose 5-20 µM, DDE = dose-dependent effect
# LS174T [2] = assay: Inhibition of cell invasion in human LS174T cells incubated for 24 hrs by transwell assay; format: functional, cell-based; settings: dose 2-8 µM, DDE = dose-dependent effect
# LS174T [3] = assay: Downregulation of beta-catenin expression in human LS174T cells at 2.5 to 20 uM incubated for 24 hrs by Western blot analysis; format: functional, cell-based; settings: dose 2.5-20 µM
# LS174T [4] = assay: Induction of cell cycle arrest in human LS174T cells assessed as accumulation of cells at G2/M phase at 20 uM measured at 36 hrs by RNase A/propidium iodide staining based flow cytometric analysis (reference value: 12.9 %); format: functional
# Mus musculus [5] = assay: Downregulation of survivin expression in tumor of BALB/c mouse xenografted with human LS174T cells at 10 to 30 mg/kg, ip administered 3 times per week for 21 days by Western blot analysis; format: functional, organism-based; settings: dose 10-30 mg/kg, time 21.0 day
# LS174T [6] = assay: Inhibition of cell migration in human LS174T cells assessed as reduction in wound closure incubated for 24 hrs by wound healing assay; format: functional, cell-based; settings: dose 2-8 µM, DDE = dose-dependent effect
# LS174T [7] = assay: Induction of cell cycle arrest in human LS174T cells assessed as accumulation of cells at G2/M phase at 20 uM measured after 24 hrs by RNase A/propidium iodide staining based flow cytometric analysis (reference value: 12.2 %); format: functional
# Mus musculus [8] = assay: Downregulation of c-Myc expression in tumor of BALB/c mouse xenografted with human LS174T cells at 10 to 30 mg/kg, ip administered 3 times per week for 21 days by immunohistochemical based analysis; format: functional, organism-based; settings: dose 10-30 mg/kg, time 21.0 day
# LS174T [9] = assay: Induction of cell cycle arrest in human LS174T cells assessed as accumulation of cells at S phase at 20 uM measured at 24 hrs by RNase A/propidium iodide staining based flow cytometric analysis (reference value: 11.4 %); format: functional
# LS174T [10] = assay: Induction of apoptosis in human LS174T cells assessed as total cell death at 40 uM measured after 48 hrs by AnnexinV-FITC/PI staining based flowcytometry analysis relative to control; format: functional
# LS174T [11] = assay: Induction of cell cycle arrest in human LS174T cells assessed as accumulation of cells at G0/G1 phase at 20 uM measured after 24 hrs by RNase A/propidium iodide staining based flow cytometric analysis (reference value: 71.7 %); format: functional
# Mus musculus [12] = assay: Downregulation of cyclin-D1 expression in tumor of BALB/c mouse xenografted with human LS174T cells at 10 to 30 mg/kg, ip administered 3 times per week for 21 days by Western blot analysis; format: functional, organism-based; settings: dose 10-30 mg/kg, time 21.0 day
# LS174T [13] = assay: Induction of cell cycle arrest in human LS174T cells assessed as accumulation of cells at sub-G1 phase at 20 uM measured at 12 hrs by RNase A/propidium iodide staining based flow cytometric analysis (reference value: 0.7 %); format: functional
# HCT-15 = assay: Antiproliferative activity against human HCT-15 cells harboring wild type beta-catenin assessed as reduction in cell viability measured after 72 hrs by SRB assay; format: functional, cell-based; settings: HCT-15, 72 h
# LS174T [14] = assay: Induction of cell cycle arrest in human LS174T cells assessed as accumulation of cells at S phase at 10 uM measured after 24 hrs by RNase A/propidium iodide staining based flow cytometric analysis (reference value: 14.5 %); format: functional
# LS174T [15] = assay: Induction of cell cycle arrest in human LS174T cells assessed as accumulation of cells at G2/M phase at 20 uM measured at 12 hrs by RNase A/propidium iodide staining based flow cytometric analysis (reference value: 12.9 %); format: functional
# LS174T [16] = assay: Induction of apoptosis in human LS174T cells assessed as total cell death at 20 uM measured after 48 hrs by AnnexinV-FITC/PI staining based flowcytometry analysis relative to control; format: functional
# LS174T [17] = assay: Antitumor activity against human LS174T cells xenografted in BALB/c nude mouse assessed as reduction in tumor weight at 10 mg/kg, ip administered 3 times per week for 21 days by electronic caliper method; format: functional; set-up: scale not given: the % may be the effect or the level left; settings: time 21 day
# LS174T [18] = assay: Induction of cell cycle arrest in human LS174T cells assessed as accumulation of cells at G0/G1 phase at 10 uM measured after 24 hrs by RNase A/propidium iodide staining based flow cytometric analysis (reference value: 71.7 %); format: functional
# LS174T [19] = assay: Induction of cell cycle arrest in human LS174T cells assessed as accumulation of cells at sub-G1 phase at 20 uM measured at 36 hrs by RNase A/propidium iodide staining based flow cytometric analysis (reference value: 0.7 %); format: functional
# LS174T [20] = assay: Induction of cell cycle arrest in human LS174T cells assessed as accumulation of cells at G2/M phase at 20 uM measured at 48 hrs by RNase A/propidium iodide staining based flow cytometric analysis (reference value: 12.9 %); format: functional
# LS174T [21] = assay: Induction of cell cycle arrest in human LS174T cells assessed as accumulation of cells at S phase at 20 uM measured after 24 hrs by RNase A/propidium iodide staining based flow cytometric analysis (reference value: 14.5 %); format: functional
# LS174T [22] = assay: Antitumor activity against human LS174T cells xenografted in BALB/c nude mouse assessed as reduction in tumor weight at 30 mg/kg, ip administered 3 times per week for 21 days by electronic caliper method; format: functional; set-up: scale not given: the % may be the effect or the level left; settings: time 21 day
# Mus musculus [23] = assay: Downregulation of N-cadherin expression in tumor of BALB/c mouse xenografted with human LS174T cells at 10 to 30 mg/kg, ip administered 3 times per week for 21 days by immunohistochemical based analysis; format: functional, organism-based; settings: dose 10-30 mg/kg, time 21.0 day
# LS174T [24] = assay: Induction of apoptosis in human LS174T cells assessed as upregulation of cleaved caspase-3 expression measured after 48 hrs by Western blot analysis; format: functional, cell-based; settings: dose 20-40 µM, DDE = dose-dependent effect
# LS174T [25] = assay: Downregulation of MMP-7 expression in human LS174T cells at up to 8 uM incubated for 24 hrs by Western blot analysis; format: functional, cell-based
# Mus musculus [26] = assay: Downregulation of c-myc protein expression in tumor of BALB/c mouse xenografted with human LS174T cells at 10 to 30 mg/kg, ip administered 3 times per week for 21 days by Western blot analysis; format: functional, organism-based; settings: dose 10-30 mg/kg, time 21.0 day
# LS174T [27] = assay: Induction of cell cycle arrest in human LS174T cells assessed as accumulation of cells at S phase at 20 uM measured at 48 hrs by RNase A/propidium iodide staining based flow cytometric analysis (reference value: 11.4 %); format: functional
# LS174T [28] = assay: Antitumor activity against human LS174T cells xenografted in BALB/c nude mouse assessed as reduction in tumor volume at 30 mg/kg, ip administered 3 times per week for 21 days by electronic caliper method; format: functional; set-up: scale not given: the % may be the effect or the level left; settings: time 21 day
# LS174T [29] = assay: Downregulation of survivin expression in human LS174T cells at 2.5 to 20 uM incubated for 24 hrs by Western blot analysis; format: functional, cell-based; settings: dose 2.5-20 µM
# CCD-18Co = assay: Antiproliferative activity against human CCD-18Co cells assessed as reduction in cell viability measured after 72 hrs by SRB assay; format: functional, cell-based
# LS174T [30] = assay: Induction of apoptosis in human LS174T cells assessed as downregulation of survivin expression measured after 48 hrs by Western blot analysis; format: functional, cell-based; settings: dose 20-40 µM, DDE = dose-dependent effect
# LS174T [31] = assay: Induction of cell cycle arrest in human LS174T cells assessed as downregulation of CDK4 expression measured after 24 hrs by Western blot analysis; format: functional, cell-based; settings: dose 5-20 µM, DDE = dose-dependent effect
smiles,measurement,setting,value
O=c1c2ccccc2nc2n1CCc1c-2[nH]c2ccccc12 [RUTAECARPINE],Activity,LS174T [1],Dde
same,inhibition,LS174T [2],Dde
same,Activity,LS174T [3],Active
same,Activity,LS174T [4],4.5%
same,Activity,Mus musculus [5],Active
same,inhibition,LS174T [6],Dde
same,Activity,LS174T [7],7%
same,Activity,Mus musculus [8],Active
same,Activity,LS174T [9],2.2%
same,Activity,LS174T [10],85.4%
same,Activity,LS174T [11],87.3%
same,Activity,Mus musculus [12],Active
same,Activity,LS174T [13],0.5%
same,IC50,HCT-15,> 50 µM
same,Activity,LS174T [14],7.2%
same,Activity,LS174T [15],16.8%
same,Activity,LS174T [16],24.7%
same,Activity,LS174T [17],68.3%
same,Activity,LS174T [18],81.6%
same,Activity,LS174T [19],6.1%
same,Activity,LS174T [20],4.4%
same,Activity,LS174T [21],4.1%
same,Activity,LS174T [22],41.5%
same,Activity,Mus musculus [23],Active
same,Activity,LS174T [24],Dde
same,Activity,LS174T [25],Active
same,Activity,Mus musculus [26],Active
same,Activity,LS174T [27],4.7%
same,Activity,LS174T [28],54.6%
same,Activity,LS174T [29],Active
same,IC50,CCD-18Co,> 50 µM
same,Activity,LS174T [30],Dde
same,Activity,LS174T [31],Dde
